Measurements reported in article PMC10278368 (The Pediatric infectious disease journal, 2011).
In brackets after ≈: the same amount, converted by molar mass. Counter-ions that a name gives are not always drawn. Like-named read-outs stand apart in the source and are kept apart here. Bridge positions count the residues as written; N and C are the ends. Square brackets hold non-standard residues; d marks the D form. Peptide text beside a SMILES is read from it. * marks the point of attachment. X1 = CC[C@H](C)CCCCC(=O)*; Dab = NCC[C@H](N)C(=O)O

Tests used:
[1] = type: in vivo, human
[2] = tested on: multidrug resistant Klebsiella pneumoniae; assay: microbe, parasite or virus in culture
[3] = tested on: multidrug resistant Klebsiella pneumoniae; conditions: blood culture isolate of the patient; for MIC: method not stated
Acinetobacter baumannii = assay: MIC of the endotracheal aspirate isolate; type: cell-based; conditions: isolate from endotracheal aspirate of the patient; reported as susceptible
[4] = tested on: multidrug resistant Klebsiella pneumoniae; type: in vivo, human; conditions: 1.5 mg/kg/dose every 12 hours IV in combination with amikacin once daily; persistently febrile; infant, n = 1

For `CC[C@H](C)CCCCC(=O)N[C@@H](CCN)C(=O)N[C@H](C(=O)N[C@@H](CCN)C(=O)N[C@H]1CCNC(=O)[C@H]([C@@H](C)O)NC(=O)[C@H](CCN)NC(=O)[C@H](CCN)NC(=O)[C@H](CC(C)C)NC(=O)[C@@H](Cc2ccccc2)NC(=O)[C@H](CCN)NC1=O)[C@@H](C)O` [Polymyxin B1] (X1-[Dab]T[Dab][Dab][Dab][dF]L[Dab][Dab]T; lactam 4-C), the clearance ([1]; human, in vivo, iv) was 5.07 mL/min, the half-life ([1]; human, in vivo, iv) was 3.07 h and the “elimination half-life (rounded)” value ([1]; infant, n = 1, IV polymyxin B, steady-state serum, LC-MS) was 3.1 h.

With `NCC[C@H](O)C(=O)N[C@@H]1C[C@H](N)[C@@H](O[C@H]2O[C@H](CN)[C@@H](O)[C@H](O)[C@H]2O)[C@H](O)[C@H]1O[C@H]1O[C@H](CO)[C@@H](O)[C@H](N)[C@H]1O` [amikacin] the MIC [2] was < 2 µg/mL.

For piperacillin/tazobactam, the MIC [3] was > 128 µg/mL and the MIC (Acinetobacter baumannii) was < 4 µg/mL.

In the case of `CC(C)(O/N=C(\C(=O)N[C@@H]1C(=O)N2C(C(=O)[O-])=C(C[n+]3ccccc3)CS[C@H]12)c1csc(N)n1)C(=O)O` [ceftazidime], the MIC [2] is reported as 16 µg/mL (≈ 29.3 µM).

`CO/N=C(\C(=O)N[C@@H]1C(=O)N2C(C(=O)O)=C(CSc3nc(=O)c(=O)[nH]n3C)CS[C@H]12)c1csc(N)n1` [ceftriaxone] showed an MIC [2] of 16 µg/mL (≈ 28.9 µM).

For ampicillin/sulbactam, the MIC [3] was > 32 µg/mL.

`C[C@@H](O)[C@H]1C(=O)N2C(C(=O)O)=C(S[C@@H]3CN[C@H](C(=O)N(C)C)C3)[C@H](C)[C@H]12` [meropenem] gave an MIC ([2]; read-out: MIC by E-test) of 32 µg/mL (≈ 83.4 µM).

With `CC[C@H](C)CCCCC(=O)N[C@@H](CCN)C(=O)N[C@H](C(=O)N[C@@H](CCN)C(=O)N[C@H]1CCNC(=O)[C@H]([C@@H](C)O)NC(=O)[C@H](CCN)NC(=O)[C@H](CCN)NC(=O)[C@H](CC(C)C)NC(=O)[C@@H](Cc2ccccc2)NC(=O)[C@H](CCN)NC1=O)[C@@H](C)O` [polymyxin B, Polymyxin B sulfate] (X1-[Dab]T[Dab][Dab][Dab][dF]L[Dab][Dab]T; lactam 4-C (inferred); N-terminus assumed) the “MIC by E-test” value ([3]; E-test) was 1.5 µg/mL and the “days of persistently positive blood cultures under treatment” value [4] was 3 days.

In the case of `CC[C@H](C)CCCCC(=O)N[C@@H](CCN)C(=O)N[C@H](C(=O)N[C@@H](CCN)C(=O)N[C@H]1CCNC(=O)[C@H]([C@@H](C)O)NC(=O)[C@H](CCN)NC(=O)[C@H](CCN)NC(=O)[C@H]([C@@H](C)CC)NC(=O)[C@@H](Cc2ccccc2)NC(=O)[C@H](CCN)NC1=O)[C@@H](C)O` [Isoleucine Polymyxin B1] (X1-[Dab]T[Dab][Dab][Dab][dF]I[Dab][Dab]T; lactam 4-C), the clearance ([1]; human, in vivo, iv) is reported as 4.02 mL/min.

With `C[C@H]1[C@H](NC(=O)/C(=N\OC(C)(C)C(=O)O)c2csc(N)n2)C(=O)N1S(=O)(=O)O` [aztreonam] the MIC [2] was > 64 µg/mL.
